Earlier results, collected in patent publication US9554996B2, “Compositions and methods for delivery of poorly soluble drugs” (Nanotherapeutics, Inc., priority 2007, dated 2017).
Where a name gives a salt, the structure may show the parent alone.

Settings: water

For `COc1ccc2c3c1O[C@H]1C(=O)CC[C@@]4(O)[C@@H](C2)N(C)CC[C@]314` [oxycodone hydrochloride, oxycodone], the “solubility at neutral pH” value is given as 100 mg/ml.
